ChEMBL document CHEMBL1201862, “PubChem BioAssay data set” (2004)
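Assay format: 96-well plates, 48-hour exposure. At the GI50, growth is halved.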 Activity calls are given as the source filed them. Cut-off read from the data, not from the text of the source: active = GI50 up to about 1.1 µM and inactive = higher.

Assays:
Test in all cases: DTP human tumour cell line panel, 48 h
NCI-H460 = test system: NCI-H460
UO-31 = test system: UO-31
OVCAR-4 = test system: OVCAR-4
KM-20L2 = test system: KM-20L2
CCRF-CEM = test system: CCRF-CEM
UACC-257 = test system: UACC-257
XF498 = test system: XF498
SNB-75 = test system: SNB-75
SN12C = test system: SN12C
SF-268 = test system: SF-268
U-251 = test system: U-251
NCI-H23 = test system: NCI-H23
786-0 = test system: 786-0
HT-29 = test system: HT-29
SK-MEL-5 = test system: SK-MEL-5
TK-10 = test system: TK-10
NCI-H522 = test system: NCI-H522
HL-60 = test system: HL-60
LXFL 529 = test system: LXFL 529
SR = test system: SR
HOP-62 = test system: HOP-62
SW-620 = test system: SW-620
HOP-18 = test system: HOP-18
OVCAR-8 = test system: OVCAR-8
A549 = test system: A549
M19-MEL = test system: M19-MEL
SK-MEL-2 = test system: SK-MEL-2
K562 = test system: K562
SK-OV-3 = test system: SK-OV-3
UACC-62 = test system: UACC-62
RXF 393 = test system: RXF 393
COLO 205 = test system: COLO 205
NCI-H226 = test system: NCI-H226
HCT-116 = test system: HCT-116
KM12 = test system: KM12
MOLT-4 = test system: MOLT-4
DMS-114 = test system: DMS-114
DMS-273 = test system: DMS-273
LOX IMVI = test system: LOX IMVI
HCT-15 = test system: HCT-15
Malme-3M = test system: Malme-3M
SNB-19 = test system: SNB-19
SF-295 = test system: SF-295
EKVX = test system: EKVX
ACHN = test system: ACHN
SK-MEL-28 = test system: SK-MEL-28
M14 = test system: M14
RPMI-8226 = test system: RPMI-8226
OVCAR-5 = test system: OVCAR-5
A498 = test system: A498
SF-539 = test system: SF-539
DLD-1 = test system: DLD-1
HCC 2998 = test system: HCC 2998
CAKI-1 = test system: CAKI-1
HOP-92 = test system: HOP-92
IGROV-1 = test system: IGROV-1
OVCAR-3 = test system: OVCAR-3

Measured: GI50

COc1ccc2c(c1OC)C(=O)C2
> 100 µM: HCT-15
inactive: NCI-H460 > 100 µM | UO-31 > 100 µM | OVCAR-4 > 100 µM | KM-20L2 > 100 µM | CCRF-CEM > 100 µM | UACC-257 > 100 µM | XF498 > 100 µM | SNB-75 > 100 µM | SN12C > 100 µM | SF-268 > 100 µM | U-251 > 100 µM | NCI-H23 > 100 µM | 786-0 > 100 µM | HT-29 > 100 µM | SK-MEL-5 > 100 µM | TK-10 > 100 µM | NCI-H522 > 100 µM | HL-60 > 100 µM | LXFL 529 > 100 µM | SR > 100 µM | HOP-62 > 100 µM | SW-620 > 100 µM | HOP-18 > 100 µM | OVCAR-8 > 100 µM | A549 > 100 µM | M19-MEL > 100 µM | SK-MEL-2 > 100 µM | K562 > 10 µM | SK-OV-3 > 100 µM | UACC-62 > 100 µM | RXF 393 > 100 µM | COLO 205 > 100 µM | NCI-H226 > 100 µM | HCT-116 > 100 µM | KM12 > 100 µM | MOLT-4 > 100 µM | DMS-114 > 100 µM | DMS-273 > 100 µM | LOX IMVI > 100 µM | Malme-3M > 100 µM | SNB-19 > 100 µM | SF-295 > 100 µM | EKVX > 100 µM | ACHN > 100 µM | SK-MEL-28 > 100 µM | M14 > 100 µM | RPMI-8226 > 100 µM

CN(CC(=O)O)S(=O)(=O)c1ccc(Cl)cc1
inactive: NCI-H460 > 100 µM | OVCAR-5 > 100 µM | UO-31 > 100 µM | A498 > 100 µM | OVCAR-4 > 100 µM | KM-20L2 > 100 µM | SF-539 > 100 µM | CCRF-CEM > 100 µM | UACC-257 > 100 µM | XF498 > 100 µM | DLD-1 > 100 µM | SNB-75 > 100 µM | SN12C > 100 µM | SF-268 > 100 µM | U-251 > 100 µM | NCI-H23 > 100 µM | 786-0 > 100 µM | HT-29 > 100 µM | SK-MEL-5 > 100 µM | HCC 2998 > 100 µM | TK-10 > 100 µM | NCI-H522 > 100 µM | CAKI-1 > 100 µM | HL-60 > 100 µM | LXFL 529 > 100 µM | SW-620 > 100 µM | HOP-92 > 100 µM | HOP-18 > 100 µM | OVCAR-8 > 100 µM | A549 > 100 µM | M19-MEL > 100 µM | SK-MEL-2 > 100 µM | IGROV-1 > 100 µM | K562 > 100 µM | SK-OV-3 > 100 µM | UACC-62 > 100 µM | RXF 393 > 100 µM | COLO 205 > 100 µM | NCI-H226 > 100 µM | KM12 > 100 µM | MOLT-4 > 100 µM | DMS-273 > 100 µM | LOX IMVI > 100 µM | Malme-3M > 100 µM | SNB-19 > 100 µM | SF-295 > 100 µM | EKVX > 100 µM | ACHN > 100 µM | SK-MEL-28 > 100 µM | OVCAR-3 > 100 µM | M14 > 100 µM | RPMI-8226 > 100 µM
> 100 µM: HCT-15
